For the experiment, the target named is Nanoluciferase-BRD9 fusion protein (Homo sapiens (Human), UniProt Q9H8M2). The experiment can be described thus: SYO1 BRD9 NanoLuc degradation assay. Particulars: SYO-1 cells expressing 3×FLAG-NLuc-BRD9, 6 hours, read-out: SYO1 BRD9-NanoLuc degradation IC50. In kind it is cell-based. The protocol: Procedure: A stable SYO-1 cell line expressing 3×FLAG-NLuc-BRD9 was generated. On day 0 cells were seeded in 30 μL media into each well of 384-well cell culture plates. The seeding density was 8000 cells/well. […] Subsequently plates were incubated for 6 hours in a standard tissue culture incubator and equilibrated at room temperature for 15 minutes. Nanoluciferase activity was measured by adding 15 μL of freshly prepared Nano-Glo Luciferase Assay Reagent (Promega N1130), shaking the plates for 10 minutes and reading the bioluminescence using an EnVision reader.
DMSO treated cells are employed as High Control (HC) and 1 μM of a known BRD9 degrader standard treated cells are employed as Low Control (LC).

Where two headings read alike, the source gives them in different places. Bounds are passed on as bounds.

Nanoluciferase-BRD9 fusion protein, sequence (Q9H8M2 whole entry, the tested form may be a part): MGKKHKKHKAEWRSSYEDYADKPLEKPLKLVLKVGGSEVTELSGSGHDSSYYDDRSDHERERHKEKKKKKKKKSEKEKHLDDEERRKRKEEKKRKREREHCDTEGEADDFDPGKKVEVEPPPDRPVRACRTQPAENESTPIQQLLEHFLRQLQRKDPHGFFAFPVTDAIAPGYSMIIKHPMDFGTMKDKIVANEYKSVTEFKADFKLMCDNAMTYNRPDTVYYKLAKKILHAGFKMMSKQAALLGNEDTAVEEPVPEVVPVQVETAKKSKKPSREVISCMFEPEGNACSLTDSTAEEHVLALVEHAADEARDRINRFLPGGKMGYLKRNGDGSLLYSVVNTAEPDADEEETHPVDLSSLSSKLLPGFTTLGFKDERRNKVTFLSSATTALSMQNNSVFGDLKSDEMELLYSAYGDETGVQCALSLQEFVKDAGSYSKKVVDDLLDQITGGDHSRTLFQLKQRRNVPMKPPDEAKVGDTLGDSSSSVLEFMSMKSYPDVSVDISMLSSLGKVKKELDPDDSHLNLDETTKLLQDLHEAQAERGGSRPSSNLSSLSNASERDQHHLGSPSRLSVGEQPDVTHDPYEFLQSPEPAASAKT

Turning to `COc1cc(-c2cn(C)c(=O)c3cnccc23)cc(OC)c1CN1CC(n2cc(COCCOc3ccc4c(c3)C(=O)N(C3CCC(=O)NC3=O)C4=O)nn2)C1` (stereo not shown) [Compound D299], under “Table 5B”, the DC50 is < 10 nM.
With `COc1cc(-c2cn(C)c(=O)c3cnccc23)cc(OC)c1CN(C)CCCCN1CCC2(CC1)CCN(c1ccc3c(c1)C(=O)N(C1CCC(=O)NC1=O)C3=O)C2` (stereo not shown) [Compound D224], the DC50 (Table 5B) was < 10 nM.
Same read-out and setting: the same measure for `COc1cc(-c2cn(C)c(=O)c3cnccc23)cc(OC)c1CN(C)CCCCNC1CC12CCN(c1ccc3c(c1)C(=O)N(C1CCC(=O)NC1=O)C3=O)C2` (stereo not shown) [Compound D252]: < 10 nM.
For the molecule `COc1cc(-c2cn(C)c(=O)c3cnccc23)cc(OC)c1CN1CC2(CCN(CCCC#Cc3ccc4c(c3)C(=O)N(C3CCC(=O)NC3=O)C4=O)C2)C1` (stereo not shown) [Compound D211], the DC50 (Table 5B) is < 10 nM.
With `COc1cc(-c2cn(C)c(=O)c3cnccc23)cc(OC)c1CN1CCC(c2cnn(C3CCC(=O)NC3=O)c2)CC1` (stereo not shown) [Compound D393], the DC50 (Table 5C) was in the range of 10 to 100 nM.
As for `COc1cc(-c2cn(C)c(=O)c3cnccc23)cc(OC)c1CN1CC(Oc2ccc3c(c2)C(=O)N(C2CCC(=O)N(COC(=O)[C@@H](N)C(C)C)C2=O)C3=O)C1` (stereo partly shown) [Compound D381], the DC50 (Table 5C) was < 10 nM.
The same measure, in the same setting: the figure for `COc1cc(-c2cc(C(F)F)c(=O)n(C)c2)cc(OC)c1CN1CC(C#Cc2ccc3c(c2)CN(C2CCC(=O)NC2=O)C3=O)C1` (stereo not shown) [Compound D441] is < 10 nM.
On to `COc1cc(-c2cn(C)c(=O)c3cncn23)cc(OC)c1CN1CCC2(CC1)CN(c1ccc3c(c1)C(=O)N(C1CCC(=O)NC1=O)C3)C2` (stereo not shown) [Compound D428], for which, for the setting “Table 5C”, the DC50 was < 10 nM.
In the case of `COc1cc(-c2cn(C)c(=O)c3cnccc23)cc(OC)c1CN1CCC(CN2CCC3(CC2)CC(Oc2ccc4c(c2)C(=O)N(C2CCC(=O)NC2=O)C4=O)C3)CC1` (stereo not shown) [Compound D304], the DC50 (Table 5B) is < 10 nM.
Still for that read-out and setting: the same measure for `COc1cc(-c2cc(C)c(=O)n(C)c2)cc(OC)c1CN1CC(C#Cc2ccc3c(c2)C(=O)N(C2CCC(=O)NC2=O)C3=O)C1` (stereo not shown) [Compound D335]: < 10 nM.
As for `COc1cc(-c2cn(C)c(=O)c3cnccc23)cc(OC)c1CN1CC(Oc2ccc3c(c2)CN(C2CCC(=O)NC2=O)C3=O)C1` (stereo not shown) [Compound D375], the DC50 (Table 5C) is < 10 nM.
As to `COc1cc(-c2cn(C)c(=O)c3cnccc23)cc(OC)c1CN1CC(S(=O)(=O)NCCCCNc2ccc3c(c2)C(=O)N(C2CCC(=O)NC2=O)C3=O)C1` (stereo not shown) [Compound D22, 1-[[2,6-dimethoxy-4-(2-methyl-1-oxo-1,2-dihydro-2,7-naphthyridin-4-yl)phenyl]methyl]-N-(4-[[2-(2,6-dioxopiperidin-3-yl)-1,3-dioxo-2,3-dihydro-1H-isoindol-5-yl]amino]butyl) azetidine-3-sulfonamide formic acid], the DC50 (Table 5A) lay within 10 to 100 nM.
Consider `COc1cc(-c2cn(C)c(=O)c3cnccc23)cc(OC)c1CN1CC2(C1)CN(C(=O)C#Cc1ccc3c(c1)C(=O)N(C1CCC(=O)NC1=O)C3=O)C2` (stereo not shown) [Compound D81], for which the DC50 (Table 5A) is < 10 nM.
`COc1cc(-c2cn(C)c(=O)c3cnccc23)cc(OC)c1CN1CC(Oc2ccc3c(c2)C(=O)N(C2CCC(=O)NC2=O)C3=O)C1` (stereo not shown) [Compound D372]: the DC50 (Table 5C) is < 10 nM.
Consider `COc1cc(-c2cn(C)c(=O)c3cnccc23)cc(OC)c1CN1CC(CC(=O)NC2CCC23CN(c2ccc4c(c2)C(=O)N(C2CCC(=O)NC2=O)C4=O)C3)C1` (stereo not shown) [Compound D209], for which, for the setting “Table 5B”, the DC50 was 100 to 1000 nM.
Same read-out and setting: the figure for `COc1cc(-c2cn(C)c(=O)c3cnccc23)cc(OC)c1CN1CC(n2cc(COc3ccc4c(c3)C(=O)N(C3CCC(=O)NC3=O)C4=O)nn2)C1` (stereo not shown) [Compound D297] is < 10 nM.
The same measure, in the same setting: the same measure for `COc1cc(-c2cn(C)c(=O)c(C)c2C)cc(OC)c1CN1CCN(CCC2CCN(c3ccc4c(c3)CN(C3CCC(=O)NC3=O)C4=O)CC2)CC1` (stereo not shown) [Compound D362]: < 10 nM; for `COc1cc(-c2cn(C)c(=O)c3cnccc23)cc(OC)c1CN(C)CCCCNC1CC2(CCN(c3ccc4c(c3)C(=O)N(C3CCC(=O)NC3=O)C4=O)CC2)C1` (stereo not shown) [Compound D247]: < 10 nM; for `COc1cc(-c2cn(C)c(=O)c3cnccc23)cc(OC)c1CN(C)C(=O)CCCCNC1CCC12CN(c1ccc3c(c1)C(=O)N(C1CCC(=O)NC1=O)C3=O)C2` (stereo not shown) [Compound D255]: < 10 nM.
As for `COc1cc(-c2cc(C(F)(F)F)c(=O)n(C)c2)cc(OC)c1CN1CCC(CCN2CCN(c3ccc4c(c3)C(=O)N(C3CCC(=O)NC3=O)C4=O)CC2)CC1` (stereo not shown) [Compound D328], the DC50 (Table 5B) is < 10 nM.
The same measure, in the same setting: the same measure for `COc1cc(-c2cn(C)c(=O)c3cnccc23)cc(OC)c1CN1CCC2C(C1)CN2C(=O)C#Cc1ccc2c(c1)C(=O)N(C1CCC(=O)NC1=O)C2=O` (stereo not shown) [Compound D242]: < 10 nM; for `COc1cc(-c2cn(C)c(=O)c3cnccc23)cc(OC)c1CN1CCN(CCCC#Cc2ccc3c(c2)C(=O)N(C2CCC(=O)NC2=O)C3=O)CC1` (stereo not shown) [Compound D214]: < 10 nM.
For the molecule `COc1cc(-c2cn(C)c(=O)cc2C)cc(OC)c1CN1CCN(c2ccc3c(c2)C(=O)N(C2CCC(=O)NC2=O)C3=O)CC1` (stereo not shown) [Compound D436], the DC50 (Table 5C) was < 10 nM.
Turning to `COc1cc(-c2cn(C)c(=O)c3cnccc23)cc(OC)c1CN1CC(CC(=O)N2CC3(CCN(c4ccc5c(c4)C(=O)N(C4CCC(=O)NC4=O)C5=O)CC3)C2)C1` (stereo not shown) [Compound D190], where the note is “Table 5B”, the DC50 was in the range of 10 to 100 nM.
As for `COc1cc(-c2cn(C)c(=O)c3cnccc23)cc(OC)c1CN(C)CCCn1cc(CN2CC(Oc3ccc4c(c3)C(=O)N(C3CCC(=O)NC3=O)C4=O)C2)nn1` (stereo not shown) [Compound D285], where the note is “Table 5B”, the DC50 was 100 to 1000 nM.
With `COc1cc(-c2cc(C)c(=O)n(C)c2)cc(OC)c1CN1CC(CCc2ccc3c(c2)C(=O)N(C2CCC(=O)NC2=O)C3)C1` (stereo not shown) [Compound D448], where the note is “Table 5C”, the DC50 was < 10 nM.
Consider `COc1cc(-c2cn(C)c(=O)c3cnccc23)cc(OC)c1CN(C)C(=O)CCCCN1CCC2(CC(Oc3ccc4c(c3)C(=O)N(C3CCC(=O)NC3=O)C4=O)C2)C1` (stereo not shown) [Compound D263], for which the DC50 (Table 5B) was < 10 nM.
Same read-out and setting: the figure for `COc1cc(-c2cn(C)c(=O)c3cnccc23)cc(OC)c1CN(C)C(=O)CCCCN1CC2(CCN(c3ccc4c(c3)C(=O)N(C3CCC(=O)NC3=O)C4=O)C2)C1` (stereo not shown) [Compound D187] is < 10 nM.
With `COc1cc(-c2c(C)n(C)c(=O)c3[nH]cc(C)c23)cc(OC)c1CN1CCC2(CC1)CN(c1ccc3c(c1)C(=O)N(C1CCC(=O)NC1=O)C3=O)C2` (stereo not shown) [Compound D445], where the note is “Table 5C”, the DC50 is > 1000 nM.
Regarding `COc1cc(-c2cn(C)c(=O)c3cnccc23)cc(OC)c1CN1CCN(CCCCCOc2ccc3c(c2)C(=O)N(C2CCC(=O)NC2=O)C3=O)CC1` (stereo not shown) [Compound D44, 5-((5-(4-(2,6-dimethoxy-4-(2-methyl-1-oxo-1,2-dihydro-2,7-naphthyridin-4-yl)benzyl)piperazin-1-yl)pentyl)oxy)-2-(2,6-dioxopiperidin-3-yl)isoindoline-1,3-dione formic acid], the DC50 (Table 5A) was < 10 nM.
On the same count and under the same terms, the figure for `COc1cc(-c2cc(C)c(=O)n(C)c2)cc(OC)c1CN1CC(C(=O)NCCCCCCCCNc2cccc3c2C(=O)N(C2CCC(=O)NC2=O)C3=O)C1` (stereo not shown) [Compound D16, 2-(2,6-dihydroxypiperidin-3-yl)-4-[(8-[[hydroxy(1-[[4-(6-hydroxy-1,5-dimethyl-1,6-dihydropyridin-3-yl)-2,6-dimethoxyphenyl]methyl]azetidin-3-yl)methyl]amino]octyl)amino]-2,3-dihydro-1H-isoindole-1,3-diol formic acid] is < 10 nM.

The record behind these values is patent publication US11414416B1, “Compounds and uses thereof” (Foghorn Therapeutics Inc., priority 2019, dated 2022).
